Non-standard residues stand in square brackets, D forms with d. Residues, ends and D or L forms follow the SMILES beside them. hArg = N=C(N)NCCCC[C@H](N)C(=O)O; Nle = CCCC[C@H](N)C(=O)O
System: cultured rat pituitary cells
Format: cell-based

Row | Compound | secretion of ACTH | secretion of β-endorphin (β-END-LI)
1 | CC[C@H](C)[C@H](NC(=O)[C@@H]1CCCN1C(=O)[C@@H]1CCCN1)C(=O)N[C@@H](CO)C(=O)N[C@@H](CC(C)C)C(=O)N[C@@H](CC(=O)O)C(=O)N[C@@H](CC(C)C)C(=O)N[C@H](C(=O)N[C@@H](CC(C)C)C(=O)N[C@@H](Cc1c[nH]cn1)C(=O)N[C@@H](CC(C)C)C(=O)N[C@@H](CC(C)C)C(=O)N[C@@H](CCCNC(=N)N)C(=O)N[C@@H](CCC(=O)O)C(=O)N[C@@H](CCSC)C(=O)N[C@@H](CC(C)C)C(=O)N[C@@H](CCC(=O)O)C(=O)N[C@@H](CCSC)C(=O)N[C@@H](CCC(=O)O)C(=O)N[C@@H](CCCCNC(=N)N)C(=O)N[C@@H](C)C(=O)N[C@@H](CCC(=O)O)C(=O)N[C@@H](CCC(N)=O)C(=O)N[C@@H](CCC(=O)O)C(=O)N[C@@H](C)C(=O)N[C@@H](CCC(=O)O)C(=O)N[C@@H](CCC(N)=O)C(=O)N[C@@H](C)C(=O)N[C@@H](C)C(=O)N[C@@H](CC(C)C)C(=O)N[C@@H](CC(N)=O)C(=O)N[C@@H](CCCNC(=N)N)C(=O)N[C@@H](CCCCNC(=N)N)C(=O)N[C@@H](CC(C)C)C(=O)N[C@@H](CC(C)C)C(=O)N[C@@H](CCC(=O)O)C(=O)N[C@@H](CCC(=O)O)C(=O)N[C@@H](C)C(N)=O)[C@@H](C)O [[Glu^22, Leu^12, Har^23,36]-AHC(4-41)] (H-PPISLDLTLHLLREMLEME[hArg]AEQEAEQAALNR[hArg]LLEEA-NH2) | stimulates | stimulates
2 | H-SEEPPISLELTFHLLREVLE[Nle]ARAEQLAEQAHLNRRL[Nle]EII-NH2 | stimulates | stimulates
3 | H-SEEPPISLDLTFHLLREVLE[Nle]ARAEQLAEQAHSNRRL[Nle]EII-NH2 [[Nle^21,38, Glu^29, Arg^36]-rCRF] | stimulates | stimulates
4 | H-Ser-Gln-Glu-Pro-Pro-Ile-Ser-Leu-Asp-CML-Thr-Leu-Glu-Leu -Leu-Arg-Glu-Met-Leu-Glu-Met-Ala-Arg-Ala-Glu-Gln-Glu-Ala -Glu-Gln-Ala-Ala-Leu-Asn-Arg-Leu-Tyr-Leu-Glu-Glu-Ala-NH2 [[Leu^12, Glu^13, Tyr^37]-AAHC] | stimulates | stimulates
5 | H-PPISLDLTFHLLREVLEMARAEQLAEQAHSNRRYMEEI-NH2 | stimulates | stimulates
6 | H-SQEPPISLDLTFHLLRE[Nle]LE[Nle]ARAEQEAEQAALNRLLLEEA-NH2 [[Nle^18, 21]-AAHC] | stimulates | stimulates
7 | CCCC[C@H](NC(=O)[C@H](CCC(=O)O)NC(=O)[C@H](CC(C)C)NC(=O)[C@H](CCCC)NC(=O)[C@H](CCC(=O)O)NC(=O)[C@H](CCCNC(=N)N)NC(=O)[C@H](CC(C)C)NC(=O)[C@H](CC(C)C)NC(=O)[C@H](Cc1c[nH]cn1)NC(=O)[C@H](Cc1ccccc1)NC(=O)[C@@H](NC(=O)[C@H](CC(C)C)NC(=O)[C@H](CC(=O)O)NC(=O)[C@H](CC(C)C)NC(=O)[C@H](CO)NC(=O)[C@@H](N)[C@@H](C)CC)[C@@H](C)O)C(=O)N[C@@H](C)C(=O)N[C@@H](CCCNC(=N)N)C(=O)N[C@@H](C)C(=O)N[C@@H](CCC(=O)O)C(=O)N[C@@H](CCC(N)=O)C(=O)N[C@@H](CCC(=O)O)C(=O)N[C@@H](C)C(=O)N[C@@H](CCC(=O)O)C(=O)N[C@@H](CCC(N)=O)C(=O)N[C@@H](C)C(=O)N[C@@H](C)C(=O)N[C@@H](CC(C)C)C(=O)N[C@@H](CC(N)=O)C(=O)N[C@@H](CCCNC(=N)N)C(=O)N[C@@H](CCCNC(=N)N)C(=O)N[C@@H](CC(C)C)C(=O)N[C@@H](CC(C)C)C(=O)N[C@@H](CCC(=O)O)C(=O)N[C@@H](CCC(=O)O)C(=O)N[C@@H](C)C(N)=O [[Nle^18,21, Arg^36]-AAHC(6-41)] (H-ISLDLTFHLLRE[Nle]LE[Nle]ARAEQEAEQAALNRRLLEEA-NH2) | stimulates | stimulates
8 | CCCC[C@H](NC(=O)[C@H](CCC(=O)O)NC(=O)[C@H](CC(C)C)NC(=O)[C@H](CCCC)NC(=O)[C@H](CCC(=O)O)NC(=O)[C@H](CCCNC(=N)N)NC(=O)[C@H](CC(C)C)NC(=O)[C@H](CC(C)C)NC(=O)[C@H](Cc1c[nH]cn1)NC(=O)[C@H](Cc1ccccc1)NC(=O)[C@@H](NC(=O)[C@H](CC(C)C)NC(=O)[C@H](CC(=O)O)NC(=O)[C@H](CC(C)C)NC(=O)[C@H](CO)NC(=O)[C@@H](NC(=O)[C@@H]1CCCN1)[C@@H](C)CC)[C@@H](C)O)C(=O)N[C@@H](C)C(=O)N[C@@H](CCCNC(=N)N)C(=O)N[C@@H](C)C(=O)N[C@@H](CCC(=O)O)C(=O)N[C@@H](CCC(N)=O)C(=O)N[C@@H](CCC(=O)O)C(=O)N[C@@H](C)C(=O)N[C@@H](CCC(=O)O)C(=O)N[C@@H](CCC(N)=O)C(=O)N[C@@H](C)C(=O)N[C@@H](C)C(=O)N[C@@H](CC(C)C)C(=O)N[C@@H](CC(N)=O)C(=O)N[C@@H](CCCNC(=N)N)C(=O)N[C@@H](CC(C)C)C(=O)N[C@@H](CC(C)C)C(=O)N[C@@H](CC(C)C)C(=O)N[C@@H](CCC(=O)O)C(=O)N[C@@H](CCC(=O)O)C(=O)N[C@@H](C)C(N)=O [[Nle^18,21, ]-AAHC(5-41)] (H-PISLDLTFHLLRE[Nle]LE[Nle]ARAEQEAEQAALNRLLLEEA-NH2) | stimulates | stimulates
9 | H-SQEPPISLDLTFHLLREVLE[Nle]TRADQLAQQAHSNRRLLDIA-NH2 [[Nle^21, Arg^23,36]-oCRF] | stimulates | stimulates

System: secretion of ACTH and β-END-LI

Row | Compound | secretion of ACTH (inhibition) | secretion of β-END-LI (inhibition)
10 | CCCC[C@H](NC(=O)[C@H](CCC(=O)O)NC(=O)[C@H](CC(C)C)NC(=O)[C@H](CCCC)NC(=O)[C@H](CCC(=O)O)NC(=O)[C@H](CCCNC(=N)N)NC(=O)[C@H](CC(C)C)NC(=O)[C@H](CC(C)C)NC(=O)[C@H](Cc1c[nH]cn1)NC(=O)[C@H](Cc1ccccc1)NC(=O)[C@@H](NC(=O)[C@H](CC(C)C)NC(=O)[C@H](CC(=O)O)NC(=O)[C@@H](N)CC(C)C)[C@@H](C)O)C(=O)N[C@@H](C)C(=O)N[C@@H](CCCNC(=N)N)C(=O)N[C@@H](C)C(=O)N[C@@H](CCC(=O)O)C(=O)N[C@@H](CCC(N)=O)C(=O)N[C@@H](CCC(=O)O)C(=O)N[C@@H](C)C(=O)N[C@@H](CCC(=O)O)C(=O)N[C@@H](CCC(N)=O)C(=O)N[C@@H](C)C(=O)N[C@@H](C)C(=O)N[C@@H](CC(C)C)C(=O)N[C@@H](CC(N)=O)C(=O)N[C@@H](CCCNC(=N)N)C(=O)N[C@@H](CC(C)C)C(=O)N[C@@H](CC(C)C)C(=O)N[C@@H](CC(C)C)C(=O)N[C@@H](CCC(=O)O)C(=O)N[C@@H](CCC(=O)O)C(=O)N[C@@H](C)C(N)=O [[Nle^18,21]-AAHC(8-41)] (H-LDLTFHLLRE[Nle]LE[Nle]ARAEQEAEQAALNRLLLEEA-NH2) | inhibits | inhibits
11 | H-LDLTFHLLREVLEMARAEQLAQQAHSNRRLMEII-NH2 [[Arg^36]-rCRF(8-41)] | inhibits | inhibits
12 | CCCC[C@H](NC(=O)[C@H](CCC(=O)O)NC(=O)[C@H](CC(C)C)NC(=O)[C@H](CCCC)NC(=O)[C@H](CCC(=O)O)NC(=O)[C@H](CCCNC(=N)N)NC(=O)[C@H](CC(C)C)NC(=O)[C@H](CC(C)C)NC(=O)[C@H](CCC(=O)O)NC(=O)[C@H](Cc1ccccc1)NC(=O)[C@@H](NC(=O)[C@H](CC(C)C)NC(=O)[C@@H](N)CC(=O)O)[C@@H](C)O)C(=O)N[C@@H](C)C(=O)N[C@@H](CCCNC(=N)N)C(=O)N[C@@H](C)C(=O)N[C@@H](CCC(=O)O)C(=O)N[C@@H](CCC(N)=O)C(=O)N[C@@H](CCC(=O)O)C(=O)N[C@@H](C)C(=O)N[C@@H](CCC(=O)O)C(=O)N[C@@H](CCC(N)=O)C(=O)N[C@@H](C)C(=O)N[C@@H](C)C(=O)N[C@@H](CC(C)C)C(=O)N[C@@H](CC(N)=O)C(=O)N[C@@H](CCCNC(=N)N)C(=O)N[C@@H](CC(C)C)C(=O)N[C@@H](CC(C)C)C(=O)N[C@@H](CC(C)C)C(=O)N[C@@H](CCC(=O)O)C(=O)N[C@@H](CCC(=O)O)C(=O)N[C@@H](C)C(N)=O [[Glu^13,Nle^18,21]-AAHC(9-41)] (H-DLTFELLRE[Nle]LE[Nle]ARAEQEAEQAALNRLLLEEA-NH2) | inhibits | inhibits
13 | CCCC[C@H](NC(=O)[C@H](CCC(=O)O)NC(=O)[C@H](CC(C)C)NC(=O)[C@H](CCCC)NC(=O)[C@H](CCC(=O)O)NC(=O)[C@H](CCCNC(=N)N)NC(=O)[C@H](CC(C)C)NC(=O)[C@H](CC(C)C)NC(=O)[C@H](Cc1c[nH]cn1)NC(=O)[C@H](Cc1ccccc1)NC(=O)[C@@H](NC(=O)[C@H](CC(C)C)NC(=O)[C@@H](N)CC(=O)O)[C@@H](C)O)C(=O)N[C@@H](C)C(=O)N[C@@H](CCCNC(=N)N)C(=O)N[C@@H](C)C(=O)N[C@@H](CCC(=O)O)C(=O)N[C@@H](CCC(N)=O)C(=O)N[C@@H](CCC(=O)O)C(=O)N[C@@H](C)C(=O)N[C@@H](CCC(=O)O)C(=O)N[C@@H](CCC(N)=O)C(=O)N[C@@H](C)C(=O)N[C@@H](C)C(=O)N[C@@H](CC(C)C)C(=O)N[C@@H](CC(N)=O)C(=O)N[C@@H](CCCNC(=N)N)C(=O)N[C@@H](CC(C)C)C(=O)N[C@@H](CC(C)C)C(=O)N[C@@H](CC(C)C)C(=O)N[C@@H](CCC(=O)O)C(=O)N[C@@H](CCC(=O)O)C(=O)N[C@@H](C)C(N)=O [[Nle^18,21]-AAHC(9-41)] (H-DLTFHLLRE[Nle]LE[Nle]ARAEQEAEQAALNRLLLEEA-NH2) | inhibits | inhibits
14 | H-DLTFELLREVLEVARAEQLAQQAHSNRRLMEII-NH2 [[Glu^13, Val^21, Arg^36]-rCRF (9-41)] | inhibits | inhibits
